In PubChem BioAssay (NCI):
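Cultured in 96-well plates, cells were exposed to test compound for 48 hours across five concentrations. TGI: concentration producing complete growth inhibition.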

Legend:
Experiment in all cases: NCI-60 cell line screen, 48 h
SNB-19 CNS = tested on: SNB-19 CNS
NCI-H460 lung = tested on: NCI-H460 lung
HCT-15 colon = tested on: HCT-15 colon
MCF7 breast = tested on: MCF7 breast
UACC-257 melanoma = tested on: UACC-257 melanoma
SW-620 colon = tested on: SW-620 colon
RXF 393 renal = tested on: RXF 393 renal
COLO 205 colon = tested on: COLO 205 colon
T-47D breast = tested on: T-47D breast
PC-3 prostate = tested on: PC-3 prostate

Structure (SMILES)	TGI (SNB-19 CNS) [µM]	TGI (NCI-H460 lung) [µM]	TGI (HCT-15 colon) [µM]	TGI (MCF7 breast) [µM]	TGI (UACC-257 melanoma) [µM]	TGI (SW-620 colon) [µM]	TGI (RXF 393 renal) [µM]	TGI (COLO 205 colon) [µM]	TGI (T-47D breast) [µM]	TGI (PC-3 prostate) [µM]
CC(OP(=O)(O)O)C(N)C(=O)O (stereo not given)	> 100	> 100	> 100	> 100	> 100	> 100	> 100	> 100	> 100	> 100
Cc1c(OCc2cccc3ccccc23)ccc2c(=O)cc(SCCN3CCOCC3)oc12	> 100	> 100	> 100	> 100	> 100	> 100	> 100	> 100	> 100	> 100
O=C(O)CSC1=NNC2(C(=O)N1)c1ccccc1-c1ccccc12	> 10	> 10	> 10	> 10	> 10	> 10	> 10	> 10	> 10	> 10
O=C1CCCCC/C1=C\c1cccc(F)c1	> 100	> 100	> 100	> 100	> 100	> 100	> 100	> 100	> 100	> 100
Cc1ccc(N=C/C=C(\Nc2ccc(C)cc2)c2ccc3ccccc3c2)cc1	15.4	13.8	4.24	16.5	16.6	24.9	8.52	2.38	23.7	18
C=C(CN(CC)CC)C1(c2ccccc2)CC2(CCCC2)C(=O)O1 (stereo not given)	> 100	> 100	> 100	> 100	98.9	> 100	> 100	> 100	> 100	> 100
COc1ccc(OC)c2c(C)ccnc12	> 100	> 100	> 100	> 100	> 92.5	> 85.6	> 100	> 83.3	> 100	> 100
S=C1C(=Nc2ccccc2)N(c2ccccc2)/C(=N\c2cccc[n+]2Cc2ccccc2)N1c1ccccc1	34.8	50	45.7	42.8	31.6	35.7	27.3	34.9	61.7	29.9
Nc1ccc2c(=O)cc(-c3ccc(Br)s3)[nH]c2n1	> 100	> 100	> 100	> 100	> 100	> 100	> 100	> 22.1	> 100	> 100
O=C1C=CC2(O[C@H](C3CCCCC3)[C@@H](C3CCCCC3)O2)C(SC(=O)c2ccccc2)C1 (stereo not given in full)	6.56	17.6	9.47	5.08	16.2	16.8	2.49	15	1.94	7.43
O=c1[nH]nc(-c2ccccc2)c2[nH]c3c(c12)Cc1ccccc1-3	> 100	> 100	> 100	> 100	> 100	> 100	> 42.2	> 34.4	> 100	> 100
CCOC(=O)c1cc2c3c(c(C(C)=O)c(OC)c2[nH]1)N(C(=O)CC)CC3	26.5	45.3	34.2	40.4	49.4	> 100	37.2	41.8	45.4	72.7
CC(C)(C)c1cc(OCc2nnc3sc(Cc4ccccc4)nn23)c(Cl)cc1OCc1nnc2sc(Cc3ccccc3)nn12	> 100	42.5	> 100	37.2	63.5	> 100	38.8	> 100	38.5	> 100
Cc1cc(C)nc(NS(=O)(=O)c2ccc(NNc3c4ccccc4nc4c(C(=O)Nc5ccc(S(=O)(=O)Nc6cc(C)on6)cc5)cccc34)cc2)n1	> 100	> 100	> 100	> 100	> 100	> 100	> 100	> 100	> 100	> 100
NC1CCCCC1NCCNC1CCCCC1N (stereo not given)	> 100	> 100	> 100	> 100	> 100	> 100	> 100	30.8	> 100	> 100
O=C1C=CC(=O)c2c(O)c(N3CCOCC3)c(Cl)c(O)c21	3.17	2.71	0.403	0.486	0.911	0.351	0.464	0.395	4.36	1.56

Structure (SMILES)	TGI (SNB-19 CNS) [µM]	TGI (NCI-H460 lung) [µM]	TGI (HCT-15 colon) [µM]	TGI (MCF7 breast) [µM]	TGI (UACC-257 melanoma) [µM]	TGI (SW-620 colon) [µM]	TGI (RXF 393 renal) [µM]	TGI (COLO 205 colon) [µM]	TGI (T-47D breast) [µM]	TGI (PC-3 prostate) [µM]
C=CC(C)(C)/C=C/c1ccc(O)cc1	> 100	> 100	> 100	> 100	> 100	> 100	> 100	> 100	95	89.4
CCOc1ccc2nc3nc(=O)[nH]c(C)c3c(NC(C)(CO)CO)c2c1	> 100	> 100	> 100	> 100	> 100	> 100	> 100	> 100	> 100	> 100
CSc1nnc(SCc2nn3c(=O)cc(C)nc3s2)s1	> 100	> 100	> 100	> 100	> 100	> 100	> 100	> 100	> 100	> 100
CC(=O)/C=C/c1ccccc1	> 100	> 100	> 100	> 100	> 100	> 100	> 100	> 100	> 100	> 100
O=C1Nc2cccc(Cl)c2/C1=C\c1c(-c2ccccc2)nc2n1CCS2	66.1	40.7	83.1	39.1	51.4	35.2	42.5	39.5	48.9	41.8
c1cc2cc3c4c5c(cc6ccc7cc8cc9c%10c8c8c7c6c5c8c5c%10c(c1C9N1CCOCCOCCOCCOCCOCC1)c2c45)C3 (stereo not given)	> 100	> 100	> 100	> 100	> 100	> 100	> 100	> 100	> 100	> 100
Cc1nc(C)c(N2CCN(CN)CC2)c(=O)[nH]1	> 100	> 100	> 100	> 100	> 100	> 100	> 100	> 100	> 100	> 100
COC(=O)/C=C\n1nc(Br)c(=O)[nH]c1=O	> 100	> 100	> 100	> 100	> 100	> 100	> 100	> 100	> 100	> 100
COC(=O)C1C(=O)CC(C)(O)C(C(=O)OC)C1c1ccc(N(C)C)cc1 (stereo not given)	> 100	> 100	> 100	> 100	> 100	> 100	> 100	> 100	> 100	> 100
CC(c1ccccc1)n1cncc1C(=O)NN1CCN(C)CC1 (stereo not given)	> 10	> 10	> 10	> 10	> 10	> 10	> 10	> 10	> 10	> 10
COc1cccc(NC(=O)CC(=O)n2nc(-c3ccccc3)c(N=Nc3ccc(Cl)cc3)c2-c2ccccc2)c1	> 100	> 92.5	> 100	45.3	> 100	> 100	75.9	61.6	> 100	> 100
O=C1C=CC(=O)c2c1ccc1c3ccccc3n(Cc3ccccc3)c21	> 100	> 100	46.2	45.6	40.9	25.7	32.8	38.9	64.6	53.3
Clc1ccc(-c2nn3c(COc4cccc(OCc5nnc6sc(-c7ccc(Cl)cc7)nn56)c4)nnc3s2)cc1	> 100	> 100	> 100	27.2	62.1	> 100	77.6	82.9	57	> 100
[N-]=[N+]=Nc1nc2ccccc2c(N=[N+]=[N-])c1Cl	> 100	> 100	> 100	> 100	> 100	> 100	> 100	> 100	> 100	> 100
CC/C=C/c1cc2c(cc1O)CCC1C2CC[C@@]2(C)C1CC[C@@H]2O (stereo not given in full)	17.4	17.3	29.9	10.1	25.2	14.2	7.92	27.5	15	11.6
COc1cc(S(=O)(=O)Nc2ccc(-c3csc(N4C(=O)C(Cl)C4c4ccccc4O)n3)cc2)ccc1Cl (stereo not given)	> 100	> 100	> 100	54.2	88.6	> 100	52.6	90.1	29.5	> 100
